Target: phosphodiesterase IV
Assay: phosphodiesterase IV inhibitory activity (standard assay procedures)
Assay type: biochemical
Settings: assay not given
Description: The assays used to confirm the phosphodiesterase IV inhibitory activity of compounds of formula (I) are standard assay procedures as disclosed by Schilling et al, Anal. Biochem. 216:154 (1994), Thompson and Strada, Adv. Cycl. Nucl. Res. 8:119 (1979) and Gristwood and Owen, Br. J. Pharmacol. 87:91P (1986).

CCc1nc2c(OC)ccc(C(=O)Nc3ccnn3C)c2s1 [Example 5, 2-Ethyl-4-methoxybenzothiazole-7-carboxylic acid (2-methyl-2H-pyrazol-3-yl)amide]
IC50: 17 nM

Reference: patent publication US6313116A, “Benzothiazole compounds and their therapeutic use” (Darwin Discovery, Ltd., priority 2000, dated 2001)
